# Laboratory results reported in PMC7415757, “Monocrotaline-induced liver toxicity in rat predicted by a combined in vitro physiologically based kinetic modeling approach” (Archives of Toxicology, 2020).
# Where two headings read alike, the source gives them in different places.
# Tests used:
# [1] = parameters: method as in IARC [2019]; details: possibly carcinogenic in humans; ref IARC [2019]; cited from earlier work
# [2] = Substrate depletion in incubations with pooled rat liver microsomes; format: in vitro ADME, rat (Sprague–Dawley)
# Protocol: (§1) After 5 min of pre-incubation in a shaking water bath at 37 °C, the reactions were started by the addition of 1 mM NADPH. The reactions were carried out for 1 h and 2 h for liver and intestinal microsomes, respectively. For each incubation, a corresponding control incubated in the absence of NADPH was included by adding buffer instead of NADPH. To stop the metabolic conversion, 100 µl of ice-cold methanol was added and the sample was put on ice, then centrifuged at 5000 × g for 20 min at 4 °C using a microcentrifuge (CT15RE, VWR, Leuven, Belgium). Supernatants were diluted 200 times in 90% (v/v) acetonitrile and transferred to LC–MS vials. LC–MS analysis was performed using a Shimadzu Nexera XR LC-20AD SR UPLC system in tandem with a Shimadzu LCMS-8040 mass spectrometer (Shimadzu, Kyoto, Japan). From each incubation, 1 µl of supernatant was loaded onto a Luna Omega polar C18 100A LC column (1.6 µm 100 × 2.1 mm, Phenomenex) fitted with a FP polar precolumn (Phenomenex), using a flow rate of 0.3 ml/min. The temperature was set at 40 °C and 5 °C for column and sample, respectively. The mobile phase consisted of ultrapure water (solvent A) and acetonitrile (solvent B) both containing 0.1% (v/v) formic acid. The gradient began with 100% solvent A (0% B) for 1 min to wash away unwanted salts, followed by a linear gradient from 0 to 5% B till 8 min and a further increase to 100% B in 2 min, keeping the elution at 100% B for 0.5 min, then the column was set back to the starting conditions and equlibrated for 3.4 min before the next injection. […] For all incubations, three independent replicates were performed.
# (§2) The ratio of Vmax and Km was calculated as the in vitro catalytic efficiency (kcat) expressed in […]. […] The rat liver weight of 8.5 g and small intestine weight of 3.5 g (see Table 1) (Brown et al. [1997]) were used to scaled the in vivo kcat values to values expressed in ml/min/tissue.
# [3] = Reported blood kinetics after iv [14C] monocrotaline (Estep et al. 1991); format: in vivo; details: rat, iv 60 mg/kg bw, from Estep et al. 1991
# Protocol: The reported concentration nmol/g is assumed to be equal to nmol/ml or µM. The reported blood concentration is calculated as the sum of the plasma and RBC concentration.
# male Sprague–Dawley rats = details: IP single dose 0; 100; 200; 225; 300, 12 h after dosing, BW 100–130 g; ref Copple et al. [2002]; cited from earlier work
# [4] = Fraction unbound in rat serum by rapid equilibrium dialysis (RED); format: in vitro ADME; details: 37 °C, read-out: fub, in vivo (fraction unbound)
# Protocol: The fub,in vivo was determined by rapid equilibrium dialysis (RED) (Waters et al. [2008]). […] The device was sealed with tape and incubated at 37 °C on a shaker at 250 rpm. After incubation for 5 h when the system reached equilibrium (van Liempd et al. [2011]), 50 µl of post-dialysis samples was collected from the serum and buffer chambers into separate eppendorf tubes. Subsequently, 50 µl of rat serum was added to the buffer samples and 50 µl of PBS was added to the serum samples. To precipitate the protein, 300 µl of ice-cold acetonitrile (90% v/v) was added to both tubes. After putting the mixtures on ice for 30 min, the mixtures were centrifuged at 15,000 g for 30 min at 4 °C, and the supernatants were diluted five times in 90% (v/v) acetonitrile and analyzed by LC–MS as described above. The measurements were performed in triplicate.
# DNA adducts = tested on: DNA adducts; parameters: method as in Xia et al. ([2013]); details: moderate tumour formation; ref Xia et al. ([2013]); cited from earlier work
# [5] = parameters: method as in Estep et al. 1991; details: rat, iv 60 mg/kg bw, ref Estep et al. 1991, cited from earlier work
# primary rat hepatocytes [6] = tested on: primary rat hepatocytes; parameters: method as in Tu et al. ([2013]); details: 2 µM, pH 7.4; ref Tu et al. ([2013]); cited from earlier work
# primary rat hepatocytes [7] = assay: Uptake of monocrotaline into primary rat hepatocytes (Tu et al. 2013); format: cell-based; details: scaled with 120 mg protein/g liver and 34 g liver/kg bw from Tu et al. ([2013])
# [8] = Substrate depletion in incubations with pooled rat intestinal microsomes; format: in vitro ADME, rat (Sprague–Dawley)
# Protocol: as §1, §2
# [9] = tested on: human liver cell line HepaRG; details: in vitro γH2AX induction potency, ref Louisse et al. ([2019]); cited from earlier work
# [10] = parameters: method as in Lester et al. ([2019]); details: ref Lester et al. ([2019]); cited from earlier work
# [11] = liver, 35 mg microsomal protein/g liver, present study
# [12] = intestine, 20.6 mg microsomal protein/g small intestine, present study
# [13] = small intestine, PBK model code
structure (smiles),measurement,setting,value
C[C@H]1C(=O)O[C@@H]2CCN3CC=C(COC(=O)[C@](C)(O)[C@]1(C)O)[C@H]23 [Monocrotaline],IARC carcinogenicity category,[1],2B
same,Km,"[2]; Sprague-Dawley, rat, pH 7.4, liver, present study",9.2 µM
same,"scaled liver kcat, times lower than lasiocarpine",[2]; liver,41.8 times
same,"scaled liver kcat, times lower than riddelliine",[2]; liver,4.3 times
same,Scaled kcat,"[2]; liver weight 8.5 g, present study",1.9 ml/min/ tissue
same,Scaled Vmax,[2]; [11],2.1 nmol/min/g tissue
same,Scaled kcat,[2]; [11],0.2 ml/min/g tissue
same,"KmLM1, affinity constant","[2]; liver, PBK model code",9.22 µmol/L
same,"VmaxLM1c, unscaled maximum rate of metabolism","[2]; liver, PBK model code",0.06 nmol/min-1/mg protein
same,Vmax,"[2]; liver, present study",0.06 nmol/min/mg microsomal protein
same,"Reported concentration of monocrotaline equivalents, blood (plasma + RBCs)",[3]; 5 min,257.00 µM
same,"Reported concentration of monocrotaline equivalents, blood (plasma + RBCs)",[3]; 15 min,195.34 µM
same,"Reported concentration of monocrotaline equivalents, blood (plasma + RBCs)",[3]; 30 min,167.41 µM
same,"Reported concentration of monocrotaline equivalents, blood (plasma + RBCs)",[3]; 60 min,149.97 µM
same,"Reported concentration of monocrotaline equivalents, blood (plasma + RBCs)",[3]; 120 min,134.54 µM
same,"Reported concentration of monocrotaline equivalents, blood (plasma + RBCs)",[3]; 180 min,121.75 µM
same,"Reported concentration of monocrotaline equivalents, blood (plasma + RBCs)",[3]; 240 min,116.71 µM
same,"Reported concentration of monocrotaline equivalents, blood (plasma + RBCs)",[3]; 300 min,92.88 µM
same,"Reported concentration of monocrotaline equivalents, blood (plasma + RBCs)",[3]; 360 min,97.66 µM
same,"Reported concentration of monocrotaline equivalents, blood (plasma + RBCs)",[3]; 420 min,92.00 µM
same,"POD: NOAEL, increased plasma ALT",male Sprague–Dawley rats,100 mg/kg bw
same,"fraction unbound at 5 h, 150 µM",[4],0.53 ± 0.12
same,ranking based on the formation of DNA adducts,DNA adducts,group II
same,"Reported concentration of monocrotaline equivalents, RBCs",[5]; 5 min,144.00 µM
same,"Reported concentration of monocrotaline equivalents, plasma",[5]; 5 min,113.00 µM
same,"Reported concentration of monocrotaline equivalents, RBCs",[5]; 15 min,113.46 µM
same,"Reported concentration of monocrotaline equivalents, plasma",[5]; 15 min,81.88 µM
same,"Reported concentration of monocrotaline equivalents, RBCs",[5]; 30 min,100.06 µM
same,"Reported concentration of monocrotaline equivalents, plasma",[5]; 30 min,67.35 µM
same,"Reported concentration of monocrotaline equivalents, RBCs",[5]; 60 min,100.13 µM
same,"Reported concentration of monocrotaline equivalents, plasma",[5]; 60 min,49.84 µM
same,"Reported concentration of monocrotaline equivalents, RBCs",[5]; 120 min,104.89 µM
same,"Reported concentration of monocrotaline equivalents, plasma",[5]; 120 min,29.65 µM
same,"Reported concentration of monocrotaline equivalents, RBCs",[5]; 180 min,99.93 µM
same,"Reported concentration of monocrotaline equivalents, plasma",[5]; 180 min,21.82 µM
same,"Reported concentration of monocrotaline equivalents, RBCs",[5]; 240 min,99.60 µM
same,"Reported concentration of monocrotaline equivalents, plasma",[5]; 240 min,17.11 µM
same,"Reported concentration of monocrotaline equivalents, RBCs",[5]; 300 min,79.81 µM
same,"Reported concentration of monocrotaline equivalents, plasma",[5]; 300 min,13.07 µM
same,"Reported concentration of monocrotaline equivalents, RBCs",[5]; 360 min,85.50 µM
same,"Reported concentration of monocrotaline equivalents, plasma",[5]; 360 min,12.16 µM
same,"Reported concentration of monocrotaline equivalents, RBCs",[5]; 420 min,81.00 µM
same,"Reported concentration of monocrotaline equivalents, plasma",[5]; 420 min,11.00 µM
same,overall rate for uptake into primary rat hepatocytes,primary rat hepatocytes [6],14.5 pmol/mg protein/min
same,"rate for uptake in the liver of rats, scaled",primary rat hepatocytes [7],3.55 µmol/h/kg bw
same,Km,"[8]; Sprague-Dawley, rat, pooled rat intestinal microsomes, pH 7.4, intestine, present study",13.4 µM
same,Scaled Vmax,[8]; [12],0.4 nmol/min/g tissue
same,Scaled kcat,[8]; [12],0.03 ml/min/g tissue
same,Vmax,"[8]; intestine, present study",0.02 nmol/min/mg microsomal protein
same,Scaled kcat,"[8]; small intestine weight 3.5 g, present study",0.1 ml/min/ tissue
same,"KmSiM2, affinity constant",[8]; [13],13.39 µmol/L
same,"VmaxSiM2c, unscaled maximum rate of metabolism",[8]; [13],0.02 nmol/min-1/mg protein
same,potency group,[9],group 3
same,metabolic stability,[10],metabolically stable
